pEC50: −log10 of the molar value.
Molecular target: T1, hFXR (Homo sapiens, UniProt Q96RI1)
T1 construct: expressed in transfected cells; host or cells: CV-1 cells
T1 sequence (Q96RI1 1-486): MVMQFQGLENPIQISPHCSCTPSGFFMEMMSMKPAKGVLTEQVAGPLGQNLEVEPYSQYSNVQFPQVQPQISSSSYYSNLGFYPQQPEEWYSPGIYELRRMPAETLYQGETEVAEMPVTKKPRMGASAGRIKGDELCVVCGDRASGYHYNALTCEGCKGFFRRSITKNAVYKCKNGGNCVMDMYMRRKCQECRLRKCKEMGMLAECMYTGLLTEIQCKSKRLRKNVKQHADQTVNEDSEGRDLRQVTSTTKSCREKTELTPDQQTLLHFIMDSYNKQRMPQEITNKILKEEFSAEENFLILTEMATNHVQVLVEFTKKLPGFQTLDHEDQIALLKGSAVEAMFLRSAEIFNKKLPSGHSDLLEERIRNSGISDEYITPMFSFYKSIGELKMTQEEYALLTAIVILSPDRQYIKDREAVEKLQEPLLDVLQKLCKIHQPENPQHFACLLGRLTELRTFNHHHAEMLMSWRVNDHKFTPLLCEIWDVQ
T1 sequence (P19793 1-462 partner): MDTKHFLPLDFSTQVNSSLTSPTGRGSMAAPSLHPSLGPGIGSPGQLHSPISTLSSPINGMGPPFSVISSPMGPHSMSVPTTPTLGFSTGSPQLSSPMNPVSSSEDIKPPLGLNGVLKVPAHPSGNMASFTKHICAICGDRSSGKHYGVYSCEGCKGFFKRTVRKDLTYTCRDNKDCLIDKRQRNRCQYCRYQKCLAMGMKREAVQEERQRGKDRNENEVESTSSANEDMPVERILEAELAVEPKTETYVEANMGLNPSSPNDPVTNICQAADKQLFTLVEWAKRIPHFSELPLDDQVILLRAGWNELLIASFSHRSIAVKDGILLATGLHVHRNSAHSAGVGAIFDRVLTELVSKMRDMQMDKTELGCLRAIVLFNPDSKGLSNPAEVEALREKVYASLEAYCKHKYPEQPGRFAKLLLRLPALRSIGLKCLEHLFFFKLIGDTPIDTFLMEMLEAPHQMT
Assay: In Vitro FXR Assay (TK): TK-ECRE-luc reporter in transfected CV-1 cells
Type: cell-based
Conditions: 18 hrs, luminescence, maximum efficacy of <25% of the Fexarmine control classified as '+'
How it was run: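 Luciferase luminescence read-out from lysed CV-1 cells transiently co-expressing hFXR and hRXR with a TK-ECRE-luc reporter (pCMX-YFP co-transfected). Compound exposure lasted 18 h at 37 °C, 5% CO2, in medium containing charcoal super-stripped serum.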

CNC(=O)O[C@H]1CC[C@H](C(=O)N(C[C@H]2CC[C@H](c3ccc(OC)c(C#N)n3)CC2)c2cccc(-c3cnn(C(C)C)c3)c2)CC1 [Compound 5.28, trans-4-(((trans-4-(6-Cyano-5-methoxypyridin-2-yl)cyclohexyl)methyl)(3-(1-isopropyl-1H-pyrazol-4-yl)phenyl)carbamoyl)cyclohexyl methylcarbamate] and COc1ccc([C@H]2CC[C@H](CN(c3cccc(-c4cnn(C(C)C)c4)c3)C(=O)[C@H]3CC[C@H](OC(=O)N4CC(OC)C4)CC3)CC2)nc1C [Compound 7.52, trans-4-((3-(1-Isopropyl-1H-pyrazol-4-yl)phenyl)((trans-4-(5-methoxy-6-methylpyridin-2-yl)cyclohexyl)methyl)carbamoyl)cyclohexyl 3-methoxyazetidine-1-carboxylate] cannot be ordered by pEC50: ≥ 6.60 for the first, ≥ 6.60 for the second.

COc1ccc([C@H]2CC[C@H](CN(c3cccc(-c4cnn(C5CC5)c4)c3)C(=O)[C@H]3CC[C@H](OC(=O)N4CC(N(C)C(=O)OC(C)(C)C)C4)CC3)CC2)cc1C [Compound 7.36, trans-4-((3-(1-Cyclopropyl-1H-pyrazol-4-yl)phenyl)((trans-4-(4-methoxy-3-methylphenyl)cyclohexyl)methyl)carbamoyl)cyclohexyl 3-((tert-butoxycarbonyl)(methyl)amino) azetidine-1-carboxylate] and COc1ccc([C@H]2CC[C@H](CN(c3cccc(-c4cnn(C5CC5)c4)c3)C(=O)[C@H]3CC[C@H](OC(=O)N4CC(CC(=O)O)C4)CC3)CC2)cc1C [Compound 7.42, 2-(1-(((trans-4-((3-(1-Cyclopropyl-1H-pyrazol-4-yl)phenyl)((trans-4-(4-methoxy-3-methylphenyl)cyclohexyl)methyl)carbamoyl)cyclohexyl)oxy)carbonyl)azetidin-3-yl)acetic acid] cannot be ordered by pEC50: ≥ 6.60 for the first, ≥ 6.60 for the second.

COc1ccc([C@H]2CC[C@H](CN(c3cccc(-c4cnn(C(C)C)c4)c3)C(=O)[C@H]3CC[C@H](NC(C)=O)CC3)CC2)cc1C [Compound 26.10, trans-4-Acetamido-N-(3-(1-isopropyl-1H-pyrazol-4-yl)phenyl)-N-((trans-4-(4-methoxy-3-methylphenyl)cyclohexyl)methyl) cyclohexanecarboxamide] and COc1ccc([C@H]2CC[C@H](CN(c3cccc(-c4cnc(C5CC5)s4)c3)C(=O)[C@H]3CC[C@H](NC(=O)CC(C)C)CC3)CC2)cc1C [Compound 25.18, trans-N-(3-(2-Cyclopropylthiazol-5-yl)phenyl)-N-((trans-4-(4-methoxy-3-methylphenyl)cyclohexyl)methyl)-4-(3-methylbutanamido) cyclohexanecarboxamide] cannot be ordered by pEC50: ≥ 6.60 for the first, ≥ 6.60 for the second.

CNC(=O)O[C@H]1CC[C@H](C(=O)N(C[C@H]2CC[C@H](c3ccc(OC)c(C#N)c3)CC2)c2cc(-c3coc(C(C)C)n3)ccn2)CC1 [Compound 5.45, trans-4-(((trans-4-(3-Cyano-4-methoxyphenyl)cyclohexyl)methyl)(4-(2-isopropyloxazol-4-yl)pyridine-2-yl)carbamoyl)cyclohexyl methylcarbamate] and COc1ccc([C@H]2CC[C@H](CN(c3cc(-c4cnn(C(C)C)c4)ccn3)C(=O)[C@H]3CC[C@H](OC(=O)NCCO)CC3)CC2)cc1C#N [Compound 6.22, trans-4-(((trans-4-(3-Cyano-4-methoxyphenyl)cyclohexyl)methyl)(4-(1-isopropyl-1H-pyrazol-4-yl)pyridin-2-yl)carbamoyl)cyclohexyl (2-hydroxyethyl)carbamate] cannot be ordered by pEC50: ≥ 6.60 for the first, ≥ 6.60 for the second.

CCC1CN(C(=O)O[C@H]2CC[C@H](C(=O)N(C[C@H]3CC[C@H](c4ccc(OC)c(C#N)c4)CC3)c3cc(-c4cnn(C(C)C)c4)ccn3)CC2)C1 [Compound 7.47, trans-4-(((trans-4-(3-Cyano-4-methoxyphenyl)cyclohexyl)methyl)(4-(1-isopropyl-1H-pyrazol-4-yl)pyridin-2-yl)carbamoyl)cyclohexyl 3-ethylazetidine-1-carboxylate] and COc1ccc([C@H]2CC[C@H](CN(c3cc(-c4cnn(C(C)C)c4)ccn3)C(=O)[C@H]3CC[C@H](OC(=O)N4CCN(C)CC4)CC3)CC2)nc1C [Compound 6.41, trans-4-((4-(1-Isopropyl-1H-pyrazol-4-yl)pyridin-2-yl)((trans-4-(5-methoxy-6-methylpyridin-2-yl)cyclohexyl)methyl)carbamoyl)cyclohexyl 4-methylpiperazine-1-carboxylate] cannot be ordered by pEC50: ≥ 6.60 for the first, ≥ 6.60 for the second.

COCCOC1CN(C(=O)O[C@H]2CC[C@H](C(=O)N(C[C@H]3CC[C@H](c4ccc(OC)c(C)n4)CC3)c3cc(-c4coc(C5CC5)n4)ccn3)CC2)C1 [Compound 7.95, trans-4-((4-(2-Cyclopropyloxazol-4-yl)pyridine-2-yl)((trans-4-(5-methoxy-6-methylpyridin-2-yl)cyclohexyl)methyl)carbamoyl)cyclohexyl 3-(2-methoxyethoxy)azetidine-1-carboxylate] and COc1ccc([C@H]2CC[C@H](CN(c3cc(-c4coc(C5CC5)n4)ccn3)C(=O)[C@H]3CC[C@@H](OC(=O)N4CC(O)C4)CC3)CC2)nc1C [Compound 7.96, 4-(4-(2-Cyclopropyloxazol-4-y)pyridine-2-yl)((4-(5-methoxy-6-methylpyridin-2-yl)cyclohexyl)methyl)carbamoyl) cyclohexyl-cis-3-hydroxyazetidine-1-carboxylate] cannot be ordered by pEC50: ≥ 6.60 for the first, 6.00 to 6.60 for the second.

CNC(=O)O[C@H]1CC[C@H](C(=O)N(CC23CCC(c4ccc(OC)c(C)c4)(CC2)CC3)c2cc(-c3cnc(C4CC4)s3)ccn2)CC1 [Compound 2.03, 4-((4-(2-Cyclopropylthiazol-5-yl)pyridin-2-yl)((4-(4-methoxy-3-methylphenyl)bicyclo[2.2.2]octan-1-yl)methyl)carbamoyl)cyclohexyl trans-methylcarbamate] and CNC(=O)O[C@H]1CC[C@H](C(=O)N(C[C@H]2CC[C@H](c3ccc(OC)c(C)n3)CC2)c2cc(-c3cnc(C(C)C)s3)ccn2)CC1 [Compound 5.04, trans-4-((4-(2-Isopropylthiazol-5-yl)pyridin-2-yl)((trans-4-(5-methoxy-6-methylpyridin-2-yl)cyclohexyl)methyl)carbamoyl)cyclohexyl methylcarbamate] cannot be ordered by pEC50: ≥ 6.60 for the first, ≥ 6.60 for the second.

COc1ccc([C@H]2CC[C@H](CN(c3cc(-c4coc(C5CC5)n4)ccn3)C(=O)[C@H]3CC[C@H](OC(=O)N4CCN(C)CC4)CC3)CC2)cc1C [Compound 6.64, trans-4-((4-(2-Cyclopropyloxazol-4-yl)pyridine-2-yl)((trans-4-(4-methoxy-3-methylphenyl)cyclohexyl)methyl)carbamoyl)cyclohexyl 4-methylpiperazine-1-carboxylate] and COc1ccc([C@H]2CC[C@H](CN(c3cc(-c4coc(C5CC5)n4)ccn3)C(=O)[C@H]3CC[C@H](OC(=O)N4CC(C(C)C)C4)CC3)CC2)nc1C [Compound 7.102, trans-4-((4-(2-Cyclopropyloxazol-4-yl)pyridine-2-yl)((trans-4-(5-methoxy-6-methylpyridin-2-yl)cyclohexyl)methyl)carbamoyl)cyclohexyl 3-isopropylazetidine-1-carboxylate] cannot be ordered by pEC50: ≥ 6.60 for the first, ≥ 6.60 for the second.

COc1ccc([C@H]2CC[C@H](CN(c3cc(-c4coc(C5CC5)n4)ccn3)C(=O)[C@H]3CC[C@H](CNC(=O)C4CCC4)CC3)CC2)nc1C [Compound 30.04, trans-4-(Cyclobutanecarboxamidomethyl)-N-(4-(2-cyclopropyloxazol-4-yl)pyridin-2-yl)-N-((trans-4-(5-methoxy-6-methylpyridin-2-yl)cyclohexyl)methyl) cyclohexanecarboxamide] and CNC(=O)O[C@H]1CC[C@H](C(=O)N(C[C@H]2CC[C@H](c3ccc(OC)c(C)n3)CC2)c2cc(-c3coc(C4CC4)n3)ccn2)CC1 [Compound 5.34, trans-4-((4-(2-Cyclopropyloxazol-4-yl)pyridine-2-yl)((trans-4-(5-methoxy-6-methylpyridin-2-yl)cyclohexyl)methyl)carbamoyl)cyclohexyl methylcarbamate] cannot be ordered by pEC50: ≥ 6.60 for the first, ≥ 6.60 for the second.

In the case of COc1ccc([C@H]2CC[C@H](CN(c3cccc(-c4cnc(C5CC5)s4)c3)C(=O)[C@H]3CC[C@H](NC(=O)COCCN(C)C)CC3)CC2)cc1C [Compound 32.04, trans-N-(3-(2-Cyclopropylthiazol-5-yl)phenyl)-4-(2-(2-(dimethylamino)ethoxy)acetamido)-N-((trans-4-(4-methoxy-3-methylphenyl)cyclohexyl)methyl) cyclohexanecarboxamide], the pEC50 was ≥ 6.60.
